Reference: article PMC11597854 (2024)

What was measured:
[1] = system: hTel23 (DNA, G4) TAGGGTTAGGGTTAGGGTTAGGG; assay: CD melting; conditions: 80 mM KCl, 10 mM KH2PO4 (90 mM K+); pH 7.3; 5 equiv. complex (25 µM), 5 µM DNA, 0.5 °C/min
[2] = system: hTel23 (DNA, G4) TAGGGTTAGGGTTAGGGTTAGGG; assay: CD titration, Hill fit; conditions: 80 mM KCl, 10 mM KH2PO4 (90 mM K+), pH 7.3, 5 °C, up to 0.9% DMSO, apparent

ΔTM [1] | Kd ([2]; 290 nm (hybrid form)) [µM] | Kd ([2]; 272 nm (parallel form), 290 nm (hybrid) gives 17) [µM] | SMILES
−13 °C | 9.7 |  | CC(=O)NCCN1[C]N2C=CC=CC2=C1.CC(=O)NCCN1[C]N2C=CC=CC2=C1.[Au+]
−4 °C |  | 5.1 | [Au+].[C]1C2=C(CCCC2)N2CCCCN12.[C]1C2=C(CCCC2)N2CCCCN12
+1 °C |  |  | [Au+].[C]1N(Cc2ccccn2)C=CN1c1c2ccccc2nc2ccccc12.[C]1N(Cc2ccccn2)C=CN1c1c2ccccc2nc2ccccc12
−2 °C |  |  | CCN1[C]N(CC)C(c2ccc(OC)cc2)=C1c1ccc(OC)cc1.CCN1[C]N(CC)C(c2ccc(OC)cc2)=C1c1ccc(OC)cc1.[Au+]
